Among the test systems are SK-OV-3 ovarian; CCRF-CEM leukemia; M14 melanoma; K-562 leukemia; NCI/ADR-RES ovarian; RXF 393 renal; SF-539 CNS; TK-10 renal; NCI-H522 lung; MDA-MB-435.
Assay in all cases: growth of human tumour cells (NCI), 48 h

Several values for one entry are separate records, joined by “and”; a condition that tells them apart may be missing. Equal values may be shown once.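 Grown in 96-well plates, cells were treated for 48 hours with each compound at five concentrations. Insufficient inhibition: endpoint recorded as highest concentration tested. GI50 marks 50% less growth. TGI marks complete inhibition of growth.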

On to `C#CCN(Cc1nc2cc(C(F)(F)F)ccc2nc1-c1ccccc1)c1ccc(F)c(F)c1`, for which the GI50 in the experiment with SK-OV-3 ovarian is greater than 100 µM; in the experiment on CCRF-CEM leukemia it was 24 µM; in the experiment with M14 melanoma it was greater than 100 µM; in the experiment on K-562 leukemia it was 39.4 µM; with NCI/ADR-RES ovarian it was 56.1 µM; in the experiment on RXF 393 renal it was 22.9 µM. The GI50 in the experiment with SF-539 CNS is 29.2 µM; in the experiment with TK-10 renal it was greater than 100 µM; in the experiment on NCI-H522 lung, 27.5 µM; in the experiment with MDA-MB-435, 37.8 µM. Also, the TGI was greater than 100 µM in the experiment with SK-OV-3 ovarian; greater than 100 µM with CCRF-CEM leukemia; greater than 100 µM in the experiment with M14 melanoma; greater than 100 µM in the experiment on K-562 leukemia; greater than 100 µM in the experiment on NCI/ADR-RES ovarian; 92.5 µM with RXF 393 renal. Moreover, the TGI in the experiment on SF-539 CNS, in the experiment on TK-10 renal, with NCI-H522 lung and in the experiment on MDA-MB-435 was greater than 100 µM each time.

Consider `Nc1c(C(=O)Nc2cccc(Br)c2)sc2nc3c(cc12)C(O)CCC3` (stereo not drawn), for which the GI50 in the experiment with SK-OV-3 ovarian is 0.57 µM; with CCRF-CEM leukemia it was 0.357 µM; with M14 melanoma it was 0.36 µM; in the experiment with K-562 leukemia it was 0.12 µM; in the experiment with NCI/ADR-RES ovarian, 0.435 µM; with RXF 393 renal, 0.361 µM. Moreover, the GI50 is 0.337 µM in the experiment with SF-539 CNS, 14.2 µM in the experiment with TK-10 renal, 0.412 µM in the experiment with NCI-H522 lung and 0.115 µM with MDA-MB-435. In addition, the TGI was 40.8 µM in the experiment on SK-OV-3 ovarian; greater than 74.9 µM in the experiment with CCRF-CEM leukemia; greater than 100 µM with M14 melanoma; greater than 38.4 µM in the experiment on K-562 leukemia; greater than 48.8 µM with NCI/ADR-RES ovarian; 6.26 µM in the experiment on RXF 393 renal. In addition, the TGI in the experiment on SF-539 CNS is 2.14 µM; with TK-10 renal, 51.6 µM; in the experiment on NCI-H522 lung, greater than 67.6 µM; with MDA-MB-435 it was 0.35 µM.

In the case of `CO[C@H](C(=O)O)[C@@H]1Cc2cc3cc(OC4CC(OC5CC(O)C(O)C(C)O5)C(O)C(C)O4)c(C)c(O)c3c(O)c2C(=O)[C@H]1OC1CC(OC2CC(OC3CC(C)(O)C(O)C(C)O3)C(O)C(C)O2)C(O)C(C)O1` (stereo partly drawn), the GI50 in the experiment with SK-OV-3 ovarian was 0.445 µM; in the experiment on CCRF-CEM leukemia, 0.33 µM; in the experiment with M14 melanoma it was 0.443 µM; in the experiment with K-562 leukemia, 0.303 µM; in the experiment with NCI/ADR-RES ovarian it was 10.1 µM; in the experiment on RXF 393 renal, 0.101 µM. The GI50 was 0.164 µM in the experiment with SF-539 CNS, 1.45 µM in the experiment on TK-10 renal, 0.134 µM in the experiment on NCI-H522 lung and 0.309 µM with MDA-MB-435. Also, the TGI in the experiment on SK-OV-3 ovarian is greater than 32.5 µM; in the experiment on CCRF-CEM leukemia it was greater than 32.5 µM; in the experiment with M14 melanoma, 3.59 µM; in the experiment on K-562 leukemia, greater than 32.5 µM; in the experiment with NCI/ADR-RES ovarian, greater than 32.5 µM; in the experiment on RXF 393 renal it was 0.436 µM. Moreover, the TGI in the experiment with SF-539 CNS was 2.02 µM; with TK-10 renal it was greater than 32.5 µM; in the experiment with NCI-H522 lung it was greater than 32.5 µM; with MDA-MB-435, 1.61 µM.

For `CCOC(=S)SCN1C(=O)c2ccccc2S1(=O)=O`, the GI50 is 32.1 µM in the experiment with SK-OV-3 ovarian; 16.3 µM in the experiment with CCRF-CEM leukemia; 16.4 µM with M14 melanoma; 35.7 µM in the experiment on K-562 leukemia; 14.1 µM in the experiment with NCI/ADR-RES ovarian; 6.97 µM in the experiment with RXF 393 renal. Besides, the GI50 was 24.7 µM in the experiment with SF-539 CNS, 29.4 µM with TK-10 renal, 11.3 µM in the experiment on NCI-H522 lung and 6.5 µM in the experiment with MDA-MB-435. Also, the TGI in the experiment with SK-OV-3 ovarian is greater than 100 µM; in the experiment on CCRF-CEM leukemia it was 39.4 µM; in the experiment with M14 melanoma, 33.5 µM; in the experiment with K-562 leukemia it was greater than 100 µM; in the experiment on NCI/ADR-RES ovarian, 50.8 µM; in the experiment on RXF 393 renal, 21.6 µM. For the same compound, the TGI is 58.5 µM in the experiment on SF-539 CNS, greater than 100 µM in the experiment on TK-10 renal, 27.8 µM in the experiment on NCI-H522 lung and 24.4 µM in the experiment on MDA-MB-435.

As for `CC1(C)[C@@H](OC(N)=O)C=C[C@]2(C=O)[C@H]3CC[C@]4(C)[C@@H](c5ccc(=O)oc5)[C@@H](Cl)C[C@]4(O)C3=CC[C@@H]12`, the GI50 in the experiment on SK-OV-3 ovarian was 0.00653 µM; in the experiment with CCRF-CEM leukemia, 0.00384 µM; in the experiment with M14 melanoma it was 0.00544 µM; in the experiment with K-562 leukemia, 0.00668 µM; in the experiment on NCI/ADR-RES ovarian, 0.00609 µM; in the experiment with RXF 393 renal, 0.00561 µM. Moreover, the GI50 with SF-539 CNS is 0.00442 µM; in the experiment with TK-10 renal it was 0.00527 µM; with NCI-H522 lung, less than 0.0025 µM; with MDA-MB-435 it was 0.006 µM. Further, the TGI came to 0.0194 µM in the experiment on SK-OV-3 ovarian; 0.0117 µM with CCRF-CEM leukemia; 0.0124 µM in the experiment on M14 melanoma; 0.0197 µM with K-562 leukemia; 0.0167 µM with NCI/ADR-RES ovarian; 0.0157 µM in the experiment on RXF 393 renal. Besides, the TGI in the experiment with SF-539 CNS came to 0.00848 µM; with TK-10 renal, 0.0157 µM; in the experiment on NCI-H522 lung it was 0.00573 µM; in the experiment on MDA-MB-435, 0.0141 µM.

For `CCCCCCNC(=O)Oc1ccc(/C(=C(\C)c2ccccc2)c2ccc(OCCN(CC)CC)cc2)cc1`, the GI50 in the experiment with SK-OV-3 ovarian was 8.33 µM; in the experiment on CCRF-CEM leukemia, 2.22 µM; with M14 melanoma, 1.11 µM; in the experiment with K-562 leukemia, 1.36 µM; in the experiment on NCI/ADR-RES ovarian it was 5.47 µM; in the experiment with RXF 393 renal, 2.35 µM. Also, the GI50 in the experiment on SF-539 CNS is 3.47 µM; in the experiment with TK-10 renal, 6.74 µM; in the experiment on NCI-H522 lung it was 3.48 µM; with MDA-MB-435, 3.57 µM. Further, the TGI in the experiment with SK-OV-3 ovarian was found to be 15.2 µM; with CCRF-CEM leukemia, 11.6 µM; in the experiment on M14 melanoma, 2.38 µM; with K-562 leukemia it was 5.31 µM; with NCI/ADR-RES ovarian, 11.9 µM; in the experiment with RXF 393 renal, 8.16 µM. Moreover, the TGI in the experiment on SF-539 CNS stood at 9.79 µM; in the experiment on TK-10 renal, 13.5 µM; in the experiment with NCI-H522 lung it was 10.6 µM; in the experiment on MDA-MB-435 it was 10.1 µM.

On to `N#Cc1c2c(c(-c3cccs3)n(C3OC(CO)C(O)C(O)C3O)c1=S)CCc1ccccc1-2` (stereo not drawn), for which the TGI with SK-OV-3 ovarian, with CCRF-CEM leukemia, in the experiment on M14 melanoma, in the experiment on K-562 leukemia, with NCI/ADR-RES ovarian and in the experiment on RXF 393 renal was greater than 100 µM in each case. Besides, the TGI in the experiment with SF-539 CNS, with TK-10 renal, in the experiment on NCI-H522 lung and in the experiment with MDA-MB-435 was greater than 100 µM throughout. Moreover, the GI50 with M14 melanoma is greater than 100 µM; with NCI/ADR-RES ovarian, 13.4 µM and 39.5 µM; in the experiment with NCI-H522 lung, 12.8 µM and 3.62 µM.

For the origin of these results see PubChem BioAssay (NCI).
